The target of data set [1] is T1, serine protease of the Dengue virus (DENV PR) (Dengue virus type 2, UniProt P29990).
T1 construct: the serine protease of the Dengue virus (DENV PR)
In words: Dengue virus protease inhibition assay. It counts as biochemical. To be noted: 20 µM inhibitor.

For data set [2], the target named is T2, cathepsin L (Homo sapiens, UniProt P07711). In words: biochemical. To be noted: for inhibition at 20 µM: read-out: % inhibition of Cath. L.
Procedure: (§1) Inhibition of cathepsins and rhodesain was tested with the fluorogenic substrate Cbz-Phe-Arg-AMC as described previously [19]. First, a screening at 20 µM inhibitor concentration was performed. For compounds showing >60% inhibition at this concentration, the IC50 values were determined. […] The respective Ki values (Table 1) were determined from plots of the IC50 values against substrate concentration according to the Cheng–Prusoff relationship [46].
(§2) Enzyme assays / Rhodesain and Cathepsins
(§3) The assays were performe d as described previously [7,8] by incubating rhodesain in 190 μL
(§4) assay buffer (50 mM sodium acetate pH 5.5, 5 mM EDTA, 200 mM NaCl, 0.005% Brij) with 5 μL of an
(§5) inhibitor DMSO stoc k solution of a given concentrati on for 10 min at room te mperature. The reaction
(§6) was started by adding 5 μ L of 400 μM Z-Phe-Arg-7-amino-4-methylc umari n (Z-Phe-Arg-AMC) in
(§7) DMSO. The released AMC was excited at 380 nm and the upc oming fl uoresce nce measured at 460
(§8) nm at 25 °C over time. The final substrate concentration was 10 μM.
(§9) Quenching of the fluoresc ence of the released AMC by the inhibitors was acc ounted for as
described previously [9].
(§10) The cathepsin L assays wer e performed accordi ngly in 50 mM Tris buffer (pH 6.5, 5 mM EDTA,
(§11) 200 mM NaCl, 0.005% Brij) and 250 μM Z-Phe-Arg-AMC concentration (final conce ntration: 6.25 μM).
(§12) The cathepsin B (Calbioche m) assays were performed accordingly in 50 mM Tris buffer pH 6.5,
(§13) 5 mM EDTA, 200 mM NaCl and 0.005% Brij leading to final enzyme and substrate concentrati ons of
(§14) Final inhibitor c once ntrations ranged from 0.001 μM to 100.0 μM.
The target in data set [3] is cathepsin B (Homo sapiens, UniProt P07858). In words: biochemical. As to conditions: for inhibition at 20 µM: read-out: % inhibition of Cath. B.
Procedure: as §1, §2, §3, §4, §5, §6, §7, §8, §9
described previously [9].
as §10, §11, §12, §13, §14
In data set [4] the target is T3, rhodesain (Trypanosoma brucei rhodesiense, UniProt Q95PM0, S297A). As to the kind of experiment: Rhodesain inhibition, fluorogenic substrate Cbz-Phe-Arg-AMC. The data set is classed as biochemical. As to conditions: for % inhibition of Rhod.: 20 µM inhibitor.
T3 sequence (Q95PM0 126-342 S297A): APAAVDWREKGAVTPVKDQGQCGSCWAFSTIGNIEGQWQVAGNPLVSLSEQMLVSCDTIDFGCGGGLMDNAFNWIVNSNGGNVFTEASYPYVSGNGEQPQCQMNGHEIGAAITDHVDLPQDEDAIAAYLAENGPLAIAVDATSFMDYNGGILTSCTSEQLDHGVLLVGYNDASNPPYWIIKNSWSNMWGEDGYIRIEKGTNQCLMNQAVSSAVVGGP
For data set [5], the target named is T2, cathepsin L. To be noted: IC50 increases linearly with substrate concentration.
Procedure: as §1, §2, §3, §4, §5, §6, §7, §8, §9
described previously [9].
as §10, §11, §12, §13, §14
Data set [6] has as its target T4, S. aureus sortase A (Staphylococcus aureus, UniProt Q2FV99).
T4 construct: made in house
In words: biochemical. To be noted: 20 µM final inhibitor concentration.

The format of data set [7] is physicochemical. To be noted: 800 µM in rhodesain sample buffer pH 5.5 with 10% d6-DMSO. The protocol: The interaction of the fluorinated inhibitors 7 and 8 with rhodesain was probed via ^19F NMR spectroscopy (Figure 3). […] To probe the rhodesain-mediated turnover of 7 into 8, we recorded time-resolved ^19F NMR spectra of 7 (800 µM) in the presence of 4 µM rhodesain (Figure 3b). During the measurement, the solution became clear and a dramatic difference in the chemical shift occurred to values identical to those observed for compound 8. The reaction was subsequently analyzed by MS (see Section 2.4), which confirmed the formation of the free acid 8.
Table S1 (DP4+)-results for product 12.
Lyophilized rhode sain was reconstituted at 4 mg/mL in 50 mM Na acetate, pH 5.5, 200 mM NaCl, 5 mM EDTA. […] After the addition of the inhibit ors at a final concentrati on of 0.1 mM, samples were analyzed by LC-MS using a nanoAcquity UP LC system (Waters Corporation) coupled to a nano-ESI-Q-TOF mass spectrome ter (Synapt G2-S HDMS, Waters Corporation). […]
For 19F NMR, c ompounds 7 (800 μM) or 8 (400 μM) were dissolved in rhodesain sample buffer (50 mM NaAcetate, pH 5.5, 200 mM NaCl, 5 mM Na-EDTA, 1 mM TCEP) with 10% d6-DMSO from a 40 mM inhibitor stock in d6-DMSO. Spectra were recorded at 303 K on a Bruker Avance 3 600 MHz spectrome ter with a Prodigy TCI cryoprobe (Bruker, Karlsruhe). Because 1H and 19F are measured in the same coil, protons wer e not decoupled during 19F acquisition. […]

The format of data set [8] is physicochemical. To be noted: assay buffer pH 5.5 without protease, 24 h, room temperature.
Data set [9] deals with T. b. brucei 449 cell line. In words: T. b. brucei cell survival assay (ATPlite). The data set is classed as cell-based. To be noted: Trypanosoma brucei, after 24 h, read-out: EC50 anti-trypanosomal activity. The protocol: Ester 7 and acid 8 were tested for their anti-trypanosomal activity against T. brucei brucei using the ATPlite assay according to previously published procedures. […] The differences in anti-protease and anti-trypanosomal activity between the lipophilic ester 7 and the more hydrophilic acid 8 might be due to different cell permeabilities of the compounds. […]
NaCl) followed by 45 min incubation at room te mpe rature. […] 5 μL of […] Z-Phe-Arg-AMC were added to 195 μL of rhodesain-8 or rhodesai n-DMSO stock solutions and the upcoming fluorescence was measured over time to assure complete inhibition (see Figure SI1)). […]
For the dilution assay, […] of the rhodesain-8 stock solution were diluted with […] 50 mM sodiu m acetate buffer (pH 5.5 with 5 mM EDTA, 200 mM NaCl 5 mM DTT) and the recovery of the enzymatic activity was measured immediately after adding […] of 400 μM Z-Phe-Arg-AMC (see […]
90 μL HMI-9 medium containing 2500 cells/mL were distributed in 96-well microplate s (PerkinEl mer). […] 50 μL of ATPlite 1 step solution (PerkinEl mer) was added to each well of the microplate and luminesce nce measured at room temperature with an Infinite® M200 PRO plate reader (Tecan Trading AG). The measured values were plotted against the c omp ound concentrati ons top yie ld the dose-resp onse c urve. The EC50 values were calculated using GraF it version 5.013 (Erithacus Software Ltd.). […]
(In ATP-based viability assays light output follows the ATP content of the culture.)

Data set [10] deals with T3, rhodesain. As to the kind of experiment: Hydrolysis assay of ester 7 with rhodesain, LC-MS. It counts as biochemical. As to conditions: room temperature, 24 h.

Like-named read-outs stand apart in the source and are kept apart here.

Here are results for 8 molecules from PMC7145299, “New Cysteine Protease Inhibitors: Electrophilic (Het)arenes and Unexpected Prodrug Identification for the Trypanosoma Protease Rhodesain” (Molecules, 2020).

A word on the inhibition: it is the drop in the measured response relative to a control, in per cent. What is called Ki is a dissociation constant, usually derived from enzyme kinetics or from competition with a known ligand. One may read the EC50 as the concentration that produces a half-maximal response.

T2 sequence (P07711 114-333): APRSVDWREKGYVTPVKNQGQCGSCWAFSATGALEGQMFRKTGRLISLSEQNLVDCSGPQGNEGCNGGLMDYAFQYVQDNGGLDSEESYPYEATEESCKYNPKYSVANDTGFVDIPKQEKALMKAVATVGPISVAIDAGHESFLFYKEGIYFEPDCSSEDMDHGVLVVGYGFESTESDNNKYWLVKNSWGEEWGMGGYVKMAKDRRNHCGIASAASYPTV
T4 sequence (Q2FV99 whole entry): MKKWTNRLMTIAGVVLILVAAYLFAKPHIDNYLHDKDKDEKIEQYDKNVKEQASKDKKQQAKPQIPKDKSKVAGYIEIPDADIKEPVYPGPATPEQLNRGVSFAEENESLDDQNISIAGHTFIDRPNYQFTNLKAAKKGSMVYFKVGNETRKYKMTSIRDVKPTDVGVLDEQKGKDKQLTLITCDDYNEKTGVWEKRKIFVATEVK
T1 sequence (P29990 1394-1440): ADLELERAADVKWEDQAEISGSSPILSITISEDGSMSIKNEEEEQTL
T1 sequence (P29990 1476-1653): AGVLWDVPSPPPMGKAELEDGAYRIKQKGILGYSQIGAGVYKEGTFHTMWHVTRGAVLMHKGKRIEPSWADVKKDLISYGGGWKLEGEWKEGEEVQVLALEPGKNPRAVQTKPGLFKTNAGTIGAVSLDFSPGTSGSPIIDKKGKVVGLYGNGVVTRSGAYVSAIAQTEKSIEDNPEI

`CC(C)C[C@H](NC(=O)[C@H](Cc1ccccc1)NC(=O)c1ccc(Cl)nc1Cl)C(=O)OCc1ccccc1` [Compound 1]: the inhibition at 20 µM in [1] was found to be 19%; in data set [2], 57%; in data set [3], 16%.
For `CC(C)C[C@H](NC(=O)[C@H](Cc1ccccc1)Nc1cc(Cl)ncn1)C(=O)OCc1ccccc1` [Compound 2], in that order: 24%, 56% and 33%.
On the same counts, the results for `CC(C)C[C@H](NC(=O)[C@H](Cc1ccccc1)Nc1cc(F)c([N+](=O)[O-])cc1[N+](=O)[O-])C(=O)OCc1ccccc1` [Compound 3] are 28%, 60% and 22%.
Take `CC(C)C[C@H](NC(=O)[C@H](Cc1ccccc1)NC(=O)c1cccc([N+](=O)[O-])c1F)C(=O)OCc1ccccc1` [Compound 4]: the “% inhibition of Rhod.” value in [4] worked out at 75%. In addition, the results for the Ki in data set [4] (read-out: Ki Rhod.) and in [2] were 290 nM and 660 nM, respectively. Moreover, the inhibition at 20 µM in data set [1] is 10%; in data set [6], 11%; in data set [2] it was 99%; in [3] it was 20%. The “inhibition mode from IC50 at different substrate concentrations” value in data set [5] is given as “competitive inhibition”.
On to `CC(C)C[C@H](NC(=O)[C@H](Cc1ccccc1)NC(=O)Nc1ccc(F)c([N+](=O)[O-])c1)C(=O)OCc1ccccc1` [Compound 5], for which the values for the inhibition at 20 µM in data set [1], in [2] and in data set [3] were 11%, 8% and 10%, respectively.
For `CC(C)C[C@H](NC(=O)[C@H](Cc1ccccc1)NC(=O)c1cc([N+](=O)[O-])ccc1F)C(=O)OCc1ccccc1` [Compound 6], the inhibition at 20 µM in data set [1] stood at 12%; in data set [2] it was 50%; in data set [3], 21%.
For the molecule `CC(C)C[C@H](NC(=O)[C@H](Cc1ccccc1)Nc1cc([N+](=O)[O-])c([N+](=O)[O-])cc1F)C(=O)OCc1ccccc1` [Compound 7], the solubility result in data set [7] is on record as “poor solubility”. In addition, the “hydrolysis of ester by reaction buffer” value in data set [8] is listed as “not hydrolyzed”. Besides, the “% inhibition of Rhod.” value in data set [4] was 45/nd %. For the same molecule, in [9], the EC50 was found to be 95.3 nM. The inhibition at 20 µM in data set [1] is 31%; in data set [6] it was 16%; in data set [2] it was 98%; in data set [3] it was 63%. Besides, the “inhibition mode from IC50 at different substrate concentrations” value in [5] is given as “competitive inhibition mode”. In addition, the results for the Ki in [2] and in data set [3] were 1600 nM and 4400 nM, respectively. For the same molecule, the “conversion of ester into free acid by catalytically active rhodesain” value in [10] was “complete conversion”.
Turning to `CC(C)C[C@H](NC(=O)[C@H](Cc1ccccc1)Nc1cc([N+](=O)[O-])c([N+](=O)[O-])cc1F)C(=O)O` [Compound 8], the Ki in data set [4] worked out at 4 nM; in [2] it was 3000 ± 900 nM; in data set [3], 1500 ± 290 nM. Also, the “reversibility of rhodesain inhibition” value in data set [4] (IC50 at 10 min vs 45 min preincubation, dilution assay) was “reversible inhibition”. Further, in [9], the EC50 stood at 18500 nM. The inhibition at 20 µM in data set [6] came out at 0%.
